Test results as given in patent publication US20080045535A1, “Prokineticin 2 receptor antagonists” (priority 2005, published 2008).
Where “and” joins values, the source holds several entries; their conditions need not be identical. Identical values can stand only once.

Biological target: T1, HEK 293 GPR73 (prokineticin 1 receptor) expressing cells (Homo sapiens, UniProt Q8TCW9)
T1 construct: expressed in transfected cells; host or cells: HEK 293
Assay: PK1 functional assay: screening for PK1 antagonists on the FLIPR (calcium fluorescence)
Format: cell-based
Conditions: HEK 293 GPR73 cells; for inhibition at 10 µM: HEK293, compound at 10 μM, read-out: Ca^2+ Mobilization % Inh @10 μM; for inhibition at 10 µM / Ca^2+ Mobilization % Inh @10 μM: multiple values = repeat tests; for IC50: PK1 ligand at EC50, multiple values = repeat tests, read-out: Ca^2+ Mobilization IC50; for Ca^2+ Mobilization % Inh @10 μM: compound at 10 μM
Experimental: At a time of 24 h prior to running the assay, in cell culture media (DMEM containing high Glucose and L-glutamine, 10% FBS, 1% Pen/Streptomycin, 1% Sodium Pyruvate, 20 mM HEPES, Zeocin 200 mg/L), 100 μL of 1.3*10^6/ml HEK 293 GPR73 (prokineticin 1 receptor) expressing cells were plated in a 96 well poly-d-lysine coated plate (Costar), and incubated at 37 C and 5% CO2. On the day in which the assay was run, the media was removed and 200 μL of 5× Calcium Plus Dye (Molecular Devices) which was previously resuspended with 200 mL of assay buffer [HBSS w/Ca^2+ and Mg^2+ w/o phenol red, 20 mM HEPES, 0.1% BSA, 10 mL probenecid (710 mg probenecid in 5 mL of 1N NaOH, to which was then added 5 mL HBSS containing 20 mM HEPES)] was added to each well of the 96-well plate. The plate was incubated at 37 C and 5% CO2 for 30 min in dark. The plate was removed and allowed to reach RT for 15 min in the dark. The assay was then run on the FLIPR. […] Baseline is described as the amount of relative fluorescence read when buffer alone is added to cells. Baseline was subtracted from all wells. Percent of control was calculated as follows:
(Baseline subtracted well value is divided by baseline subtracted max value)*100.
Percent inhibition is 100 minus the percent of control value.
IC50 values were calculated using GraphPad Prism.
Table 2 includes data generated from the PK1 functional assay described in Example 2.

T1 sequence (Q8TCW9 whole entry): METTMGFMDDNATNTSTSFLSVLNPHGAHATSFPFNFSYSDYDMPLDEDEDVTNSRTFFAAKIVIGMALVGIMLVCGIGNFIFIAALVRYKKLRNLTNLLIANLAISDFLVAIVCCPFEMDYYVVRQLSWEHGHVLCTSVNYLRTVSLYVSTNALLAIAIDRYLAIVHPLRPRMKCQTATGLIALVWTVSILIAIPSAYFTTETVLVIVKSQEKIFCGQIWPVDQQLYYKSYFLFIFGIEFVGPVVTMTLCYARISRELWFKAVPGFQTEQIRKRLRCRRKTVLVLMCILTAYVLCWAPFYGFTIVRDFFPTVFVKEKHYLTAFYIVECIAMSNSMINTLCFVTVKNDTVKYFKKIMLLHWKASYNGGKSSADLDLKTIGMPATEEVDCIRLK

Row | SMILES | inhibition at 10 µM [%] | IC50 | Ca^2+ Mobilization % Inh @10 μM (10 µM) | Ca^2+ Mobilization % Inh @10 μM
1 | COc1ccc(Cn2c(NCCNC(=N)N)nc(=O)n(Cc3cccc([N+](=O)[O-])c3)c2=O)cc1 [Cpd 94] | 60 | 4800 nM |  | 
2 | COc1ccc(Cn2c(NCCNC(=N)N)nc(=O)n(Cc3cccc(N)c3)c2=O)cc1 [Cpd 96] | 43 | > 10000 nM |  | 
3 | COc1ccc(Cn2c(NCCNC(=N)N)nc(=O)n(Cc3ccc(C#N)cc3)c2=O)cc1 [Cpd 97] | 86 | 318 nM |  | 
4 | COc1ccc(Cn2c(NCCNC(=N)N)nc(=O)n(Cc3cccc(C#N)c3)c2=O)cc1 [Cpd 98] | 34 | > 10000 nM |  | 
5 | [H]/N=C(\N)NCCNc1nc(=O)n(Cc2ccc(C(=O)OC)cc2)c(=O)n1Cc1ccc(OC)cc1 [Cpd 99] | 73 | 794 nM |  | 
6 | COC(=O)c1cccc(Cn2c(=O)nc(NCCNC(=N)N)n(Cc3ccc(OC)cc3)c2=O)c1 [Cpd 100] | 48 | 8820 nM |  | 
7 | COc1ccc(Cn2c(NCCNC(=N)N)nc(=O)n(Cc3ccc(C(=O)O)cc3)c2=O)cc1 [Cpd 101, 4-[4-(2-Guanidino-ethylamino)-3-(4-methoxy-benzyl)-2,6-dioxo-3,6-dihydro-2H-[1,3,5]triazin-1-ylmethyl]-benzoic acid] | 33 | > 10000 nM |  | 
8 | COc1ccc(Cn2c(NCC(C)(C)NC(=N)N)nc(=O)n(Cc3ccc(Cl)c(Cl)c3)c2=O)cc1 [Cpd 102] | 68 | 3490 nM |  | 
9 | CCOC(=O)c1ccc(NC(=N)NCCNc2nc(=O)n(Cc3ccc(F)cc3)c(=O)n2Cc2ccc(OC)cc2)cc1 [Cpd 106] | 89 | 508 nM |  | 
10 | CCCCCCCCCCNC(=N)NCCNc1nc(=O)n(Cc2ccc(F)cc2)c(=O)n1Cc1ccc(OC)cc1 [Cpd 108] | 89 | 369 nM |  | 
11 | COc1ccc(Cn2c(NCCNC(=N)N)nc(=O)n(Cc3ccc(OC(C)(C)C)cc3)c2=O)cc1 [Cpd 109] |  | 129 nM |  | 99%
12 | COc1ccc(Cn2c(NCCNC(=N)N)nc(=O)n(Cc3ccc(O)cc3)c2=O)cc1 [Cpd 110, N-{2-[5-(4-Hydroxy-benzyl)-1-(4-methoxy-benzyl)-4,6-dioxo-1,4,5,6-tetrahydro-[1,3,5]triazin-2-ylamino]-ethyl}-guanidine] | 81 | 1160 nM |  | 
13 | COc1ccc(Cn2c(NCCNC(=N)N)nc(=O)n(Cc3csc(Cl)n3)c2=O)cc1 [Cpd 111] | 100 | 154 nM |  | 
14 | COc1ccc(Cn2c(NCCN(C)C(=N)N)nc(=O)n(Cc3ccc(Cl)c(Cl)c3)c2=O)cc1 [Cpd 113] | 101 | 11 nM and 24 nM and 46 nM and 76 nM | 100% and 102% | 
15 | COc1ccc(Cn2c(NCCNC(=N)Nc3ccc(F)cc3)nc(=O)n(Cc3ccc(F)cc3)c2=O)cc1 [Cpd 119, N-{2-[5-(4-Fluoro-benzyl)-1-(4-methoxy-benzyl)-4,6-dioxo-1,4,5,6-tetrahydro-[1,3,5]triazin-2-ylamino]-ethyl}-N′-(4-fluoro-phenyl)-guanidine] | 102 | 6 nM and 12 nM | 99% | 
16 | COc1ccc(Cn2c(NCCNC(=N)Nc3ccc(C)cc3)nc(=O)n(Cc3ccc(F)cc3)c2=O)cc1 [Cpd 120] | 100 | 9 nM and 15 nM | 102% | 
17 | COc1ccc(Cn2c(NCCNC(=N)NC(C)(C)C)nc(=O)n(Cc3ccc(F)cc3)c2=O)cc1 [Cpd 121] | 101 | 20 nM and 33 nM | 98% | 
18 | N=C(N)NCCNc1nc(=O)n(Cc2ccc(Cl)cc2)c(=O)n1Cc1ccc(N)cc1 [Cpd 122, N-{2-[1-(4-Amino-benzyl)-5-(4-chloro-benzyl)-4,6-dioxo-1,4,5,6-tetrahydro-[1,3,5]triazin-2-ylamino]-ethyl}-guanidine] | 78 | 1080 nM |  | 
19 | COc1ccc(Cn2c(NCCNC(=N)N)nc(=O)n(CC(C)(C)C)c2=O)cc1 [Cpd 123] | 34 | > 10000 nM |  | 
20 | COc1ccc(Cn2c(NCCNC(=N)N)nc(=O)n(CC3CCCC3)c2=O)cc1 [Cpd 124] | 74 | 1560 nM |  | 
21 | COc1ccc(Cn2c(NCCNC(=N)N)nc(=O)n(Cc3ccc(N)cc3)c2=O)cc1 [Cpd 125, N-{2-[5-(4-Amino-benzyl)-1-(4-methoxy-benzyl)-4,6-dioxo-1,4,5,6-tetrahydro-[1,3,5]triazin-2-ylamino]-ethyl}-guanidine] | 83 | 487 nM |  | 
22 | NC(N)=NCCNc1nc(=O)n(Cc2ccc(Cl)cc2)c(=O)n1Cc1ccccc1 [Cpd 129] | 64 | 4780 nM |  | 
23 | N=C(N)NCCNc1nc(=O)n(Cc2ccc(Cl)cc2)c(=O)n1Cc1ccoc1 [Cpd 130] | 71 | 1870 nM |  | 
24 | COc1ccc(Cn2c(NC3CCC(NC(=N)N)CC3)nc(=O)n(Cc3ccc(F)cc3)c2=O)cc1 (centres unmarked) [Cpd 131] |  | > 10000 nM |  | 32%
25 | COc1ccc(Cn2c(NCC(=O)NC(=N)NC(=O)OC(C)(C)C)nc(=O)n(Cc3ccc(F)cc3)c2=O)cc1 [Cpd 132, N-{2-[5-(4-fluoro-benzyl)-1-(4-methoxy-benzyl)-4,6-dioxo-1,4,5,6-tetrahydro-[1,3,5]triazin-2-ylamino]-acetyl}-N′-boc-guanidine] | 54 | 8500 nM |  | 
26 | COc1ccc(Cn2c(NCCNC(=N)Nc3ccccc3SC)nc(=O)n(Cc3ccc(F)cc3)c2=O)cc1 [Cpd 133] | 93 | 200 nM |  | 
27 | COc1ccc(Cn2c(NCCN(C(=N)N)C(=O)c3ccccc3)nc(=O)n(Cc3ccc(F)cc3)c2=O)cc1 [Cpd 134, N-Benzoyl-N-{2-[5-(4-fluoro-benzyl)-1-(4-methoxy-benzyl)-4,6-dioxo-1,4,5,6-tetrahydro-[1,3,5]triazin-2-ylamino]-ethyl}-guanidine] |  | 19 nM and 28 nM |  | 97, 97%

Further compounds by falling IC50, results first:

Row | inhibition at 10 µM [%] | IC50 | Ca^2+ Mobilization % Inh @10 μM (10 µM) | Ca^2+ Mobilization % Inh @10 μM | SMILES
28 | 95 | 115 nM |  |  | COc1ccc(Cn2c(NCCNC(=N)NC3C4CC5CC(C4)CC3C5)nc(=O)n(Cc3ccc(F)cc3)c2=O)cc1 (centres unmarked) [Cpd 126]
29 |  | 89 nM |  | 100% | COc1ccc(Cn2c(NCCNC(=N)NCCc3ccccn3)nc(=O)n(Cc3ccc(F)cc3)c2=O)cc1 [Cpd 105]
30 | 96 | 84 nM |  |  | COc1ccc(Cn2c(NCCNC(=N)N)nc(=O)n(Cc3ccc([N+](=O)[O-])cc3)c2=O)cc1 [Cpd 95, N-{2-[1-(4-Methoxy-benzyl)-5-(4-nitro-benzyl)-4,6-dioxo-1,4,5,6-tetrahydro-[1,3,5]triazin-2-ylamino]-ethyl}-guanidine]
31 | 79 | 84 nM |  |  | COc1ccc(Cn2c(NCCNC(=N)N(C)c3ccccc3)nc(=O)n(Cc3ccc(F)cc3)c2=O)cc1 [Cpd 117]
32 | 100 | 58 nM |  |  | COc1ccc(Cn2c(NCCNC(=N)Nc3ccc(OC(F)(F)F)cc3)nc(=O)n(Cc3ccc(F)cc3)c2=O)cc1 [Cpd 127]
33 | 99 | 57 nM |  |  | COc1ccc(Cn2c(NCCNC(=N)N3CCCCC3)nc(=O)n(Cc3ccc(F)cc3)c2=O)cc1 [Cpd 116]
34 | 99 | 47 nM |  |  | COCCCNC(=N)NCCNc1nc(=O)n(Cc2ccc(F)cc2)c(=O)n1Cc1ccc(OC)cc1 [Cpd 115]
35 | 99 | 41 nM |  |  | COc1ccc(Cn2c(NCCNC(=N)NCC(F)(F)F)nc(=O)n(Cc3ccc(F)cc3)c2=O)cc1 [Cpd 114]
36 | 100 | 40 nM |  |  | COc1ccc(Cn2c(NCCNC(=N)Nc3ccc(O)cc3)nc(=O)n(Cc3ccc(F)cc3)c2=O)cc1 [Cpd 128]
37 | 101 | 26 nM |  |  | COc1ccc(Cn2c(NCCNC(=N)N)nc(=O)n(Cc3cc4ccccc4o3)c2=O)cc1 [Cpd 112]
38 | 99 | 23 nM |  |  | COc1ccc(Cn2c(NCCNC(=N)Nc3ccc(Br)cc3)nc(=O)n(Cc3ccc(F)cc3)c2=O)cc1 [Cpd 103]
39 | 101 | 12 nM |  |  | COc1ccc(Cn2c(NCCNC(=N)Nc3ccc(F)cc3F)nc(=O)n(Cc3ccc(F)cc3)c2=O)cc1 [Cpd 107]
40 |  | 11 nM | 99% and 102% |  | COc1ccc(Cn2c(NCCN(C(=N)N)c3ccccn3)nc(=O)n(Cc3ccc(F)cc3)c2=O)cc1 [Cpd 104, N-{2-[5-(4-Fluoro-benzyl)-1-(4-methoxy-benzyl)-4,6-dioxo-1,4,5,6-tetrahydro-[1,3,5]triazin-2-ylamino]-ethyl}-N-pyridin-2-yl-guanidine]
41 |  | 6 nM | 98% and 102% |  | COc1ccc(Cn2c(NCCN(C(=N)N)c3ccccc3F)nc(=O)n(Cc3ccc(F)cc3)c2=O)cc1 [Cpd 118, N-{2-[5-(4-Fluoro-benzyl)-1-(4-methoxy-benzyl)-4,6-dioxo-1,4,5,6-tetrahydro-[1,3,5]triazin-2-ylamino]-ethyl}-N-(2-fluoro-phenyl)-guanidine]
